The source of these data is ChEMBL document CHEMBL5465560, “Selectivity Literature for EUbOPEN Chemogenomic Library” (2024).

In assay [1] the target is Dual specificity mitogen-activated protein kinase kinase 1 (Homo sapiens, UniProt Q02750). As to the kind of experiment: Selectivity interaction (Ambit KINOMEscan and KiNATiv profiling in Jurkat cells) EUB0000090b MAP2K1. The class given is cell-based. To be noted: at 1 µM.
The target in assay [2] is Dual specificity testis-specific protein kinase 1 (Homo sapiens) (UniProt Q15569). As to the kind of experiment: Selectivity interaction (KinomeScan (DiscoverX)) EUB0000607a TESK1. To be noted: at 10 µM.
Assay [3] addresses Ribosomal protein S6 kinase alpha-1 (Homo sapiens, UniProt Q15418). As to the kind of experiment: Selectivity interaction (KinomeScan (DiscoverX)) EUB0000666a RPS6KA1. The conditions noted are these: at 10 µM.
The target of assay [4] is T1, Discoidin domain-containing receptor 2 (Homo sapiens) (UniProt Q16832).
T1 sequence (whole entry): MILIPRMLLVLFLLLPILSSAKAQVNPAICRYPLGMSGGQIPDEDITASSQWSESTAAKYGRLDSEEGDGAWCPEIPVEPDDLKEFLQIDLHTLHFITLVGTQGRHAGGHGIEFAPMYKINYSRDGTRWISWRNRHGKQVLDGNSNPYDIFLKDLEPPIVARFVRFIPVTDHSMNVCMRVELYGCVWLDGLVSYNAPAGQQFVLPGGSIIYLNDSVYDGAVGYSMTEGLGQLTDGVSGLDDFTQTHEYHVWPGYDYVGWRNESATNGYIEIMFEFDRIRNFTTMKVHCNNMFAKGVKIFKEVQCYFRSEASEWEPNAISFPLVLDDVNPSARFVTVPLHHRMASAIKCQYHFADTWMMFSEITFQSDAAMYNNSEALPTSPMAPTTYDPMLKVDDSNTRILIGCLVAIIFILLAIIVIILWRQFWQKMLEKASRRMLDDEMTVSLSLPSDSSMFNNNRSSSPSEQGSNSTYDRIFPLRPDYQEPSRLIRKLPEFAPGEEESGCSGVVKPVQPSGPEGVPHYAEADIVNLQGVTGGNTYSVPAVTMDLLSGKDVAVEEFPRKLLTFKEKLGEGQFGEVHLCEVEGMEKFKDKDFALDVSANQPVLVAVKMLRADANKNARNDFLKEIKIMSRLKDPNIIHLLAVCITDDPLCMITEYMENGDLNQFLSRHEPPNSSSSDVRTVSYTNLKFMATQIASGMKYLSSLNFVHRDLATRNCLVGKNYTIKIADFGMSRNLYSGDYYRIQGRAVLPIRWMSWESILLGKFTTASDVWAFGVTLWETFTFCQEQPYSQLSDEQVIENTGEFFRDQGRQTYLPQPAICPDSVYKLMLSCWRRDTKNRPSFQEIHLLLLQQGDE
Description: Selectivity interaction (KinomeScan (DiscoverX)) EUB0000229b DDR2. To be noted: at 10 µM.

The target in assay [5] is T2, Serine/threonine-protein kinase tousled-like 1 (Homo sapiens) (UniProt Q9UKI8).
T2 sequence (whole entry): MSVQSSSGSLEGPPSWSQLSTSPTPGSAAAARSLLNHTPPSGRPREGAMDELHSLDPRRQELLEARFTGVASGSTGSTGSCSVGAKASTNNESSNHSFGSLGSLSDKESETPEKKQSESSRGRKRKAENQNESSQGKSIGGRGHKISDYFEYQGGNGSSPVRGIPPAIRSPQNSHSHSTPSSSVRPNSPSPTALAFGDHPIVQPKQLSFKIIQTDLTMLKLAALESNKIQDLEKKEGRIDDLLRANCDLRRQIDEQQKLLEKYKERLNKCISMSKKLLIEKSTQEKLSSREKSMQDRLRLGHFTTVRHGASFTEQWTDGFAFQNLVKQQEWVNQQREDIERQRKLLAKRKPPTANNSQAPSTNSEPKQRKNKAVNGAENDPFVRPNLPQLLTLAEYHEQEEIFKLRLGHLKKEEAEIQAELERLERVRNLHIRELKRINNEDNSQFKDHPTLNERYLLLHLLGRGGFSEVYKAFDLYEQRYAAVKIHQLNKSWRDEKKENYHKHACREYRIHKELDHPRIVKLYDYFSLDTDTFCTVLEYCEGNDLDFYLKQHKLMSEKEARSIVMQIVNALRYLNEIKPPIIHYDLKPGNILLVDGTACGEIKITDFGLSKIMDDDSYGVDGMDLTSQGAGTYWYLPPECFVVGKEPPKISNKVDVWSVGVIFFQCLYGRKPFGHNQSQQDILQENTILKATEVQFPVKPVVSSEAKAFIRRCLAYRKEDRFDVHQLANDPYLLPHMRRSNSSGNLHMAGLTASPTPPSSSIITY
Description: Selectivity interaction (KinomeScan (DiscoverX)) EUB0000229b TLK1. To be noted: at 10 µM.

Assay [6] addresses T3, Inhibitor of nuclear factor kappa-B kinase subunit alpha (Homo sapiens) (UniProt O15111).
T3 sequence (whole entry): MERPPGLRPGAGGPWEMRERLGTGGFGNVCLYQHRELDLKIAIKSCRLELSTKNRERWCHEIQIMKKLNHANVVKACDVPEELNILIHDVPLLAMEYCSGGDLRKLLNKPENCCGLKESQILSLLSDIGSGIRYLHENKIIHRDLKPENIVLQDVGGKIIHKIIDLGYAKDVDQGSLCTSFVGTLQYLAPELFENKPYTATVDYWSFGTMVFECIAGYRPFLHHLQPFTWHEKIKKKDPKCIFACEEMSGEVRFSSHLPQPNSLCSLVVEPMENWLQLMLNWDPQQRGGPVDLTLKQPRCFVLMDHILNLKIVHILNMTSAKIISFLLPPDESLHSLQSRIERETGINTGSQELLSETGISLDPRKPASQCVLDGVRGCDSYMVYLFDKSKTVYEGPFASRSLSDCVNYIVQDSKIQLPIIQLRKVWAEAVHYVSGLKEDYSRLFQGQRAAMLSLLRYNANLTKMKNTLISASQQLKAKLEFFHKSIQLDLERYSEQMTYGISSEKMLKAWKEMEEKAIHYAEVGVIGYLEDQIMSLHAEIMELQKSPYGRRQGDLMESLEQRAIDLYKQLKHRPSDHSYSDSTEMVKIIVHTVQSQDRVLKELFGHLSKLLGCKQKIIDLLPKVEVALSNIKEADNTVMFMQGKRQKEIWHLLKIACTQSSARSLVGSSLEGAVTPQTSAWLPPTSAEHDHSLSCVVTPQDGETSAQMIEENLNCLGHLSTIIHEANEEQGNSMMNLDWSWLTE
As to the kind of experiment: Selectivity interaction (KinomeScan (DiscoverX)) EUB0001079a CHUK. The conditions noted are these: at 1 µM.

Assay [7] concerns the target 5-hydroxytryptamine receptor 5A (Homo sapiens) (UniProt P47898). As to the kind of experiment: Selectivity interaction (GPCR panel (PDSP screen)) EUB0001079a HTR5A. The conditions noted are these: at 10 µM.
Assay [8] has as its target Cyclin-dependent kinase 11B (Homo sapiens) (UniProt P21127). Description: Selectivity interaction (KinomeScan (DiscoverX)) EUB0000092b CDK11B. To be noted: at 10 µM.

Chain of Dual specificity mitogen-activated protein kinase kinase 1 (Q02750 whole entry): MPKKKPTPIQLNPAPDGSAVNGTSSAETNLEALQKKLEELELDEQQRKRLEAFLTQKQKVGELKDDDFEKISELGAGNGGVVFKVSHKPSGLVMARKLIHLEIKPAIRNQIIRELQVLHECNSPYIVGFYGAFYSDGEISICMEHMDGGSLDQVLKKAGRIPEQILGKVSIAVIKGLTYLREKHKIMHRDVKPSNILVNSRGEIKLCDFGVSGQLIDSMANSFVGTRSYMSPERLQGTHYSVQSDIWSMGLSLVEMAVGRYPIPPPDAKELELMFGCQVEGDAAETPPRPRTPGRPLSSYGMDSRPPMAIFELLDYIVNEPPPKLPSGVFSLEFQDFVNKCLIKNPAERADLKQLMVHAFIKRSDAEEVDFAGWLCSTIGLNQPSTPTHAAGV
Chain of 5-hydroxytryptamine receptor 5A (Homo sapiens) (P47898 whole entry): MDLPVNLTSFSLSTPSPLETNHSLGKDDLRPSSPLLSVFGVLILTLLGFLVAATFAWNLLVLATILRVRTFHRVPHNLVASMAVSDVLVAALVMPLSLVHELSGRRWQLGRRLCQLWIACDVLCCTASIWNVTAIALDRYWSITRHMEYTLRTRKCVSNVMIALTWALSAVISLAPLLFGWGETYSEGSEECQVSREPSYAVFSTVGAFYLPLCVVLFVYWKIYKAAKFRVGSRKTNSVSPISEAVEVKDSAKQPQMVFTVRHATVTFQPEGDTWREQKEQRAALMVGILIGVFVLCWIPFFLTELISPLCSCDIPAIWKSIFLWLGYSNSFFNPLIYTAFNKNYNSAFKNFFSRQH
Chain of Dual specificity testis-specific protein kinase 1 (Homo sapiens) (Q15569 whole entry, looked up): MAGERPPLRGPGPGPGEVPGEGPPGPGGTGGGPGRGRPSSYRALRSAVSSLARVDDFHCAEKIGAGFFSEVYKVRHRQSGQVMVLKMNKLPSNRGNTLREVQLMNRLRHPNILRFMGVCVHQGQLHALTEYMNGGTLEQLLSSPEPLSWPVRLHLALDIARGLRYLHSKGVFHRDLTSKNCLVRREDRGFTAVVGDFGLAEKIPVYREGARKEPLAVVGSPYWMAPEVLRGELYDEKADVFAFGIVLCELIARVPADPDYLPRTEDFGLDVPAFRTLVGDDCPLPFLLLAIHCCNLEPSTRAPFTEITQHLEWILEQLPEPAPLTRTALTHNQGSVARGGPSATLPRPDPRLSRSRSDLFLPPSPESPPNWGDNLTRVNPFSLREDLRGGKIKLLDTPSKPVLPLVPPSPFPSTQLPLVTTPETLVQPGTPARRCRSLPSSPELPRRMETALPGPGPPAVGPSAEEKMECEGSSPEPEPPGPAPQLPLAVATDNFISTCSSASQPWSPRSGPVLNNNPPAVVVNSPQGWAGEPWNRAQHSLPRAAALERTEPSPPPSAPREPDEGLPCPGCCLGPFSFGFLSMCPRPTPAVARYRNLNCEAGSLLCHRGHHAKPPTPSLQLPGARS
Chain of Ribosomal protein S6 kinase alpha-1 (Q15418 whole entry, the tested form may be a part): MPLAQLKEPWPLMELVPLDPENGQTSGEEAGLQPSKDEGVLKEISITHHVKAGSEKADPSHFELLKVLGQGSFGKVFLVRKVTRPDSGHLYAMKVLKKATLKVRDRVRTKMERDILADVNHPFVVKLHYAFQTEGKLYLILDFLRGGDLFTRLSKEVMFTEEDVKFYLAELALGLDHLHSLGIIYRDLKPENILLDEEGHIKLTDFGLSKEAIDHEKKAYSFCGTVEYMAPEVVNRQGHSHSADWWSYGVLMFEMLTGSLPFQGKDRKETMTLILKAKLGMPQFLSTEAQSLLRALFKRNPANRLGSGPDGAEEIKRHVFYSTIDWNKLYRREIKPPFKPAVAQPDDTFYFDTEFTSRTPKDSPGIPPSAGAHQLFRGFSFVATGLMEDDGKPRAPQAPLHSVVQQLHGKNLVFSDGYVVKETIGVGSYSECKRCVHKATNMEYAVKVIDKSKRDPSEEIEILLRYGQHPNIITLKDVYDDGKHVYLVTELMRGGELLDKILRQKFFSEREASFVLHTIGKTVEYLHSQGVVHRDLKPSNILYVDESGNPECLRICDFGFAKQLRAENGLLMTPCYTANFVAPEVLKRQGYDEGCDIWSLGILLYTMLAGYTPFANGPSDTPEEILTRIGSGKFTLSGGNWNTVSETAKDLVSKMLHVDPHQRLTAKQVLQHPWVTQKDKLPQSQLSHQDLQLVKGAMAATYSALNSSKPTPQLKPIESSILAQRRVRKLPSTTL
Chain of Cyclin-dependent kinase 11B (Homo sapiens) (P21127 whole entry): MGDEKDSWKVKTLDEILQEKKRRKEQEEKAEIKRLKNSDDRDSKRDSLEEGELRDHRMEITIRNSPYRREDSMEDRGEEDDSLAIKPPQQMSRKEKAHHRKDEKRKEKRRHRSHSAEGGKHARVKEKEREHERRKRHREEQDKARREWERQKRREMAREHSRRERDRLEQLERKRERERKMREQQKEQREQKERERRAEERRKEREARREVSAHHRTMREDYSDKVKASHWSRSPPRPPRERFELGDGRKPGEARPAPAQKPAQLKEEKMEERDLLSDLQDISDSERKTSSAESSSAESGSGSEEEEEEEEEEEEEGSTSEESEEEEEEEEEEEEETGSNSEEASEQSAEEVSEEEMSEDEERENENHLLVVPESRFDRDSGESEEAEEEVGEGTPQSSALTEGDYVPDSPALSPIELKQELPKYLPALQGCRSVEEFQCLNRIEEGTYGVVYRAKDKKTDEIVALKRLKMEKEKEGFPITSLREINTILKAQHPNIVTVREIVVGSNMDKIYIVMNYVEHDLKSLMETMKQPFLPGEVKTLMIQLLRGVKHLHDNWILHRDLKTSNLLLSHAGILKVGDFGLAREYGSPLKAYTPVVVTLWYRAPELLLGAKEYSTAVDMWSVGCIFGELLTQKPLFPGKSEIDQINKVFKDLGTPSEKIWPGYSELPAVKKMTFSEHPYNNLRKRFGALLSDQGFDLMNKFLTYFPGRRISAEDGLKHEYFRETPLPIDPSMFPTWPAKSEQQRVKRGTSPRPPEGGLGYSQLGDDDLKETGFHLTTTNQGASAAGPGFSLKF

On to `CN(C)C/C=C/C(=O)Nc1ccc(C(=O)N2CCCC(Nc3ncc(Cl)c(-c4c[nH]c5ccccc45)n3)C2)cc1` (stereo not drawn), for which, in assay [1], the % of control is 99%.

For the compound `CNC(=O)Nc1ccc(-c2nc(N3CC4CCC(C3)O4)c3cnn(C4CCC5(CC4)OCCO5)c3n2)cc1`, the % of control in assay [2] turned out to be 80%.

On to `O=C(NOC[C@H](O)CO)c1ccc(F)c(F)c1Nc1ccc(I)cc1F`, for which, in assay [3], the % of control came out at 84%.

With `COc1cc(N(C)c2ccnc3ccc(C(F)(F)F)cc23)cc(OC)c1OC`, the values for the % binding in assay [4] and in assay [5] were 93% and 97%, respectively.

Compound `Nc1cnc(N2CCc3cc(S(=O)(=O)Nc4c(F)cc(Cl)cc4F)cc(N4CCCC4=O)c32)nc1` [TP-020n] returned a % of control in assay [6] of 100%. The % of inhibition in assay [7] was -4.87%.

For the compound `CCC(=O)N1CCN(c2ccc(-n3c(=O)ccc4cnc5ccc(-c6cnc7ccccc7c6)cc5c43)cc2C(F)(F)F)CC1`, the % of control in assay [8] was found to be 97%.
